Experiments:
MRC-5 cells [1] = assay: Intracellular calcium measurements (Fluo-4); type: cell-based, human; details: 10 µM, acute application
Procedure: MRC-5 cells were briefly washed with NaHEPES buffer (NaHEPES buffer was prepared as follows: NaCl 140 mM, KCl 4.7 mM, HEPES 10 mM, MgCl2 1 mM, glucose 10 mM; pH 7.3) and then loaded with 1 µM Fluo-4 AM (Thermo Fisher Scientific, Waltham, MA, USA) for 1 h, 37 °C in NaHEPES. After the incubation, the cells were washed again with fresh NaHEPES and used for experiments in a flow chamber perfused with NaHEPES-based extracellular solution supplemented with 1 mM CaCl2. All experiments were carried out at room temperature using Zeiss LSM 880 confocal microscope (40× oil objective), excitation was set to 488 nm, and the emission was between 500 and 600 nm. Each series of images was recorded at 256 × 256-pixel resolution, two consecutive frames were averaged, and the interval between the averaged images was set at 2 s. Fluorescence signals were plotted as F/F0, where F0 was baseline fluorescence defined as the averaged signal from ten consecutive baseline images.

MRC-5 cells [2] = assay: FBS-induced MRC-5 proliferation, alamarBlue assay; type: cell-based, human; details: for inhibition at 50 µM: Homo sapiens, MRC5, read-out: inhibition of FBS-induced MRC-5 proliferation rate; for MRC-5 proliferation [% of control]: Table S1 (Figure 2B), 48 h with FBS
Procedure: The normal human lung fibroblast cell line—MRC-5 (ATCC® CCL-171™, Manassas, VA, USA)—was used in the study. Cells were cultured in Eagle’s Minimum Essential Medium (EMEM, ATCC® 30-2003™, Manassas, VA, USA) supplemented with 10% (v/v) fetal bovine serum (FBS; Gibco, Thermo Fisher Scientific, Waltham, MA, USA) and antibiotics mixture (penicillin, streptomycin, amphotericin B; Gibco, Thermo Fisher Scientific, Waltham, MA, USA) (standard culture medium) in standard culture conditions (5% CO2, 37 °C, 95% humidity). Unless otherwise specified, for the experiments, cells were seeded at a final density (5 × 10^3/cm^2) in standard culture medium for 24 h and then cultured in EMEM at reduced serum content (0.5%; v/v) for additional 24 h. TGF-β1 (BD Biosciences, San Jose, CA, USA) was administered at 5 ng/mL concentration in all experiments.
MRC-5 cell viability was evaluated using CytoTox-ONE™ Homogeneous Membrane Integrity Assay (Promega Corporation, Madison, WI, USA) according to the manufacturer’s protocol. The average fluorescence intensity with an excitation wavelength of 560 nm and an emission wavelength of 590 nm was measured using a microplate reader (SpectraMax® iD3, Molecular Devices, San Jose, CA, USA). Experiments were run three times in duplicates. MRC-5 proliferation was determined using the alamarBlue® assay. Cells were seeded for 24 h in standard culture medium, then serum-starved for an additional three days. Evaluated compounds (1-50 µM) were added 1 h prior FBS (10%, v/v) for an additional 48 h. After incubation, the alamarBlue® reagent (Invitrogen, Life Technologies, Carlsbad, CA, USA), dissolved in Hank’s Balanced Salt Solution (10% v/v; Gibco, Thermo Fisher Scientific, Waltham, MA, USA), was added for 30 min. After the observed color change, the supernatant was transferred to 96-well plates, and the absorbance was measured at 570 and 600 nm. The percent difference in reduction between treated and control cells was calculated according to the manufacturer’s protocol. The experiments were run three times in duplicates.

[3] = tested on: TGF-β1-induced MRC-5 cells; assay: Immunofluorescence, nuclear localization of p-CREB; type: cell-based, human; details: 10 µM
Procedure: (§1) For immunocytochemical labeling, MRC-5 cells were seeded on glass coverslips. Study compounds (10 µM) were added 1 h before TGF-β1 treatment, and analysis was performed after 1 h (p-Smad-2 and p-CREB detection) or 48 h (α-SMA detection) of incubation. Cells were fixed in methanol or 4% formaldehyde solution, permeabilized in 0.2% or 0.1% Triton X-100 solution (for p-Smad-2 and p-CREB or α-SMA, respectively). After incubation in blocking solution the following primary antibodies: rabbit polyclonal, anti-phospho-Smad-2 (Ser465, Ser467) antibody (#44-244G, Thermo Fisher Scientific, Waltham, MA, USA); rabbit polyclonal, anti-phospho-CREB1 (Ser133) antibody (#orb213775, Biorbyt, Cambridge, United Kingdom); mouse monoclonal, anti-α-SMA antibody (#MA5-11547, Thermo Fisher Scientific, Waltham, MA, USA) and secondary antibodies: goat anti-rabbit Alexa Fluor 546 conjugated antibody and goat anti-mouse Alexa Fluor 488 conjugated antibody (#A-11010 and #A-11001, respectively, Invitrogen, Carlsbad, CA, USA) were used. Nuclei were counterstained with Hoechst 33342 dye (Thermo Fisher Scientific, Waltham, MA, USA). Slides were mounted in ProLong™ Glass Antifade Mountant (Invitrogen, Carlsbad, CA, USA) and analyzed using Leica DMiL LED Fluo microscope (for α-SMA and p-CREB visualization, 40× objective) or Leica DMi8 with Thunder Imaging System (for p-Smad-2 visualization, 40× objective), all equipped with LAS-X Software (Leica Microsystems GmbH, Wetzlar, Germany). Experiments were run four times using five randomly selected fields of view, at the same fluorescent time exposure and in a blind-folded manner.

[4] = tested on: TGF-β1-induced MRC-5 cells; assay: Immunofluorescence count of α-SMA positive myofibroblasts; type: cell-based, human; details: 10 µM, 48 h TGF-β1 5 ng/mL
Procedure: as §1

TRPA1 = target: T1, TRPA1 (Homo sapiens, UniProt O75762); assay: TRPA1 antagonist FLIPR assay (functional, HEK293 cell-based)
T1 construct: host or cells: HEK293
T1 sequence (O75762 whole entry, species assumed): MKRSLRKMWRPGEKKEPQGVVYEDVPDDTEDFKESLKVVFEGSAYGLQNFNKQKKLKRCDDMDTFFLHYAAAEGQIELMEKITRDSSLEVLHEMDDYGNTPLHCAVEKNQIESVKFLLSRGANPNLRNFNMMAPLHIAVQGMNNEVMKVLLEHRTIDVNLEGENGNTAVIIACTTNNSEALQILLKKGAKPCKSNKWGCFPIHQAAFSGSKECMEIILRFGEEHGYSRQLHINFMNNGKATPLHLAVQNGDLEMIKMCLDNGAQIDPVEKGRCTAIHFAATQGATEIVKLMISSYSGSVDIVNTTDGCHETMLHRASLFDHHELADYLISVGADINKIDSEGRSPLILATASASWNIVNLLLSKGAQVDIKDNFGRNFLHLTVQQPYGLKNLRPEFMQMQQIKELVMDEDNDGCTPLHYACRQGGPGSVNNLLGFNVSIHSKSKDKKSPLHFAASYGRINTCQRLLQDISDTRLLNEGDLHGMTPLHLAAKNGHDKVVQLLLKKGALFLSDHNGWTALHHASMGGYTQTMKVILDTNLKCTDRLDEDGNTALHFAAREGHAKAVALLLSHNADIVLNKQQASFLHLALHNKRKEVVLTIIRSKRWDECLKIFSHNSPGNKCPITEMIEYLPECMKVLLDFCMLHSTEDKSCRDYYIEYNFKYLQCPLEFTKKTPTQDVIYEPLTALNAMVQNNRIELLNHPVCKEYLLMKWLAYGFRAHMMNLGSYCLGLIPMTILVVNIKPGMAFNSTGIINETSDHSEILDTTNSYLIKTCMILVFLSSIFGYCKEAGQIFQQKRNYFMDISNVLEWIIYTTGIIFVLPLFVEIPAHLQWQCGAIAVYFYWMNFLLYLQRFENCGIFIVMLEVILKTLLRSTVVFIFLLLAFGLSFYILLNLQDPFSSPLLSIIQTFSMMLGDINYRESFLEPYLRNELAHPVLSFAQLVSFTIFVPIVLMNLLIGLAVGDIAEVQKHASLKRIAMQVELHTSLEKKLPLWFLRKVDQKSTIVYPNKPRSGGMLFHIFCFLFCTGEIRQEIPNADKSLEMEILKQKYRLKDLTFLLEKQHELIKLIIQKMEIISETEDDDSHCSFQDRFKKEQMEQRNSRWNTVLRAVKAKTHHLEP
Procedure: The TRPA1 agonist and antagonist fluorescent imaging plate reader (FLIPR) Assay (functional, HEK293 cell-based) was performed at Eurofins Panlabs, Inc. (St. Charles, MO, USA). The compounds were prepared in assay buffer to the final dilutions 10 and 50 µM. In each experiment, the respective reference compounds were tested: allyl isothiocyanate (the agonist assay) and ruthenium red (the antagonist assay). The […] assays were conducted on a FLIPR^TETRA instrument where the test compounds, vehicle controls, and reference agonists or antagonists were added to the assay plate after a fluorescence baseline was established. The agonist or antagonist incubation during the assay was for a total of 180 s and was used to assess each compound’s ability to activate or inactivate TRPA1. All plates were subjected to appropriate baseline corrections. Once baseline corrections were processed, maximum fluorescence values were exported, and data was manipulated to calculate percentage activation or percentage inhibition. Results showing activity greater than 25% were considered to represent significant effects of test compounds. Experiments were run three times, […].

[5] = tested on: TGF-β1-induced MRC-5 cells; assay: Protein kinase A activity; type: cell-based, human; details: 10 µM 30 min, then TGF-β1 30 min
Procedure: Protein Kinase A (PKA) activity in MRC-5 cells was determined using a PKA Colorimetric Activity Kit (Invitrogen, Carlsbad, CA, USA) according to the manufacturer’s protocol. MRC-5 cells were seeded in standard culture medium, and after 48 h they were serum-starved for 2 h in HBSS, followed by the addition of study compounds (10 µM) and incubation for 30 min. Finally, TGF-β1 was administered, and the samples were incubated for an additional 30 min. Whole cell lysates were used in the assay. The amount of PKA was normalized to the total protein content in each sample. The experiments were run two times in duplicates.

[6] = tested on: TGF-β1-induced MRC-5 cells; assay: Western blot of p-Smad-2; type: cell-based, human; details: 10 µM, 1 h pre-incubation, TGF-β1 5 ng/mL 1 h
Procedure: Western Blot analysis was performed according to a standard protocol. Briefly, MRC-5 cells were pre-incubated with the study compounds (10 µM) for 1 h, […] (RIPA Lysis and Extraction Buffer, Thermo Fisher Scientific, Waltham, MA, USA) and supplemented with protease inhibitor cocktail and phosphatase inhibitor cocktail (both from Sigma Aldrich, St. Louis, MO, USA). Equal amounts of protein (30 µg) were separated using 10% SDS-polyacrylamide gels and transferred onto polyvinylidene difluoride (PVDF) membranes (Thermo Fisher Scientific, Waltham, MA, USA). Then membranes were washed with Tris Buffered Saline with Tween 20 (TBST) buffer (150 mM NaCl, 50 mM Tris, 0.05% Tween 20), blocked with 5% skim milk in TBST and incubated overnight with the appropriate primary antibody: rabbit, polyclonal anti-SMAD2 antibody, dilution 1:250, #51-1300 and rabbit, polyclonal anti-phospho-SMAD2 (Ser465, Ser467) antibody, dilution 1:500, #44-244G (both from Thermo Fisher Scientific, Waltham, MA, USA); rabbit, polyclonal anti-CREB1 antibody, dilution 1:500, #orb213777 and rabbit, polyclonal anti-phospho-CREB1 (Ser133) antibody, dilution 1:500, #orb213775 (both from Biorbyt LLC, San Francisco, CA, USA); mouse monoclonal anti-GAPDH antibody, dilution 1:5000, #G8795 (Sigma Aldrich, St. Louis, MO, USA). The next day, after gentle rising, membranes were exposed to secondary, rabbit anti-mouse IgG (whole molecule) peroxidase antibody (#A9044, dilution 1:3000, Sigma Aldrich, St. Louis, MO, USA) and goat anti-rabbit IgG (H+L) peroxidase-conjugated antibody (#32460, dilution 1:3000, Thermo Fisher Scientific, Waltham, MA, USA). Blots were visualized using a chemiluminescence method (Clarity Max™ Western ECL Substrate—Peroxide Solution, BioRad, Hercules, CA, USA) with a C-DiGit® Blot Scanner (LI-COR Biosciences, Lincoln, NE, USA). ROD was measured according to the NIH guidelines with Fiji ImageJ Software. The experiments were run four times.

Compound	increase in average Ca2+ response area over baseline (MRC-5 cells [1]) [fold]	inhibition at 50 µM (MRC-5 cells [2]; 50 µM) [%]	MRC-5 proliferation [% of control] (MRC-5 cells [2]; 1 µM)	MRC-5 proliferation [% of control] (MRC-5 cells [2]; 5 µM)	MRC-5 proliferation [% of control] (MRC-5 cells [2]; 10 µM)	MRC-5 proliferation [% of control] (MRC-5 cells [2]; 15 µM)	MRC-5 proliferation [% of control] (MRC-5 cells [2]; 20 µM)	MRC-5 proliferation [% of control] (MRC-5 cells [2]; 50 µM)	elevation of fraction of MRC-5 cells with nuclear p-CREB localization [3]	number of myofibroblasts (MRC-5 with α-SMA-positive stress fibers); fibroblast to myofibroblast transition [4]	TRPA1 Inhibition (% of control) (TRPA1; 10 µM)	TRPA1 Inhibition (% of control) (TRPA1; 50 µM)	Protein kinase A activity in TGF-β1-induced fibroblasts [5]	TGF-β1-induced Smad-2 phosphorylation (immunoblot) [6]
CC(C)CN1C(=O)/C(=C/C(=O)O)c2cccc(F)c21 [ASP 7663, (E)-2-(7-fluoro-1-isobutyl-2-oxoindolin-3-ylidene)acetic acid, reference compound]	10	14	99 % of control	97 % of control	96 % of control	92 % of control	89 % of control	86 % of control						
CC(C)c1ccc(NC(=O)Cn2cnc3c2c(=O)n(C)c(=O)n3C)cc1 [HC-030031, 2-(1,3-dimethyl-2,6-dioxo-1,2,3,6-tetrahydro-7H-purin-7-yl)-N-(4-isopropylphenyl)acetamide, reference compound]		15	98 % of control	96 % of control	95 % of control	90 % of control	90 % of control	85 % of control	only a slight increase	did not show any significant effect	91.8 % of control	98.8 % of control	no significant change	no differences
